Patent US20160220569A1, “CDK4/6 Inhibitor Dosage Formulations For The Protection Of Hematopoietic Stem And Progenitor Cells During Chemotherapy” (G1 Therapeutics, Inc., priority 2015, published 2016)
Several values for one entry are separate records, joined by “and”; a condition that tells them apart may be missing. Identical values can stand only once.

Experiment: 14-day oral gavage toxicokinetic study in rats
Assay type: in vivo
Conditions: for Compound 1 Plasma Concentration: daily oral 2 mg/kg (Group 7), individual animals
Protocol: Plasma was obtained from blood samples collected from rats in a composite sampling scheme, with 3 samples collected per sex, per dose, at each target collection time, as illustrated in Table 21 to Table 25. Samples were collected from the vehicle control group on Day 1 and Day 14 at 3 hour after administration. […] Blood samples were collected in tubes containing K3EDTA as an anticoagulant and placed on ice until processed to plasma via centrifugation. Samples were stored frozen at −80° C. until shipment to the bioanalytical laboratory for analysis.
The following parameters were determined:
Cmax: Maximum observed plasma concentration (ng/mL).
A value of 0 ng/mL was assigned to all values below the lower limit of quantitation (BLQ, <10.0 ng/mL).
AUC(0-inf): Area under the plasma concentration vs. time curve extrapolated from 0 to infinity (ng*h/mL), calculated as AUC(0-t)+AUC(t-inf) where AUC(t-inf) is calculated as last measurable concentration (CLast) divided by ke, where ke is the elimination rate constant determined by linear regression of the last three analytically measured points on the log plasma concentration vs. time curve. The selection criteria of the data points for inclusion in the calculation of ke required that at least three data points representing the terminal phase (after Tmax) were regressed and that R2≧0.850 when rounded.
CL: Clearance (L/h/kg), calculated as the dose divided by AUC(0-t).
Vd: Volume of distribution (L/kg), calculated as dose divided by the product of ke and AUC(0-inf).
Vdss: Steady state volume of distribution (L/kg), calculated as clearance […] mean residence time, where mean residence time is calculated as the area under the first moment curve divided by AUC(0-t).
t½: Elimination half-life (h), calculated as ln(2)/ke, where ke is the elimination rate constant determined by linear regression. Half-life was defined as not determined if regression criteria (specified in AUC(0-inf) above) were not met.
Cmax/Dose: Normalized Cmax, calculated as Cmax divided by total dose.
AUC/Dose: Normalized AUC, calculated as AUC(0-t) divided by total dose.
ii. Statistical Analysis Mean and standard deviation (SD) were calculated in Watson. Values of BLQ were assigned a value of 0 ng/mL for mean calculations. Concentration values and derived TK parameters were reported to three significant figures.

[1] = male, rat, plasma, po, 30 mg/kg, oral 30 mg/kg, Study Day 14, Male

Question: What does the source list for `CN1CCN(c2ccc(Nc3ncc4cc5n(c4n3)C3(CCCCC3)CNC5=O)nc2)CC1` [Compound 1, 2′-((5-(4-methylpiperazin-1-yl)pyridin-2-yl)amino)-7′,8′-dihydro-6′H-spiro[cyclohexane-1,9′-pyrazino[1′,2′:1,5]pyrrolo[2,3-d]pyrimidin]-6′-one]?
Answer: AUC(0-t) [1]: 29300 ng·h/mL; Cmax [1]: 2030 ng/mL; Tmax [1]: 4 h; half-life (male, rat, plasma, po, 30 mg/kg, oral 30 mg/kg, Study Day 14, Male, read-out: t½ (converted)): 4.88 h; Compound 1 Plasma Concentration (rats, Female, Day 1, 0.5 h, 2 mg/kg): 69.7 ng/mL and 120 ng/mL; Compound 1 Plasma Concentration (rats, Female, Day 1, 1 h, 2 mg/kg): 53.3 ng/mL and 115 ng/mL and 106 ng/mL; Compound 1 Plasma Concentration (rats, Female, Day 1, 2 h, 2 mg/kg): 185 ng/mL and 187 ng/mL; Compound 1 Plasma Concentration (rats, Female, Day 1, 4 h, 2 mg/kg): 90.2 ng/mL and 201 ng/mL and 234 ng/mL; Compound 1 Plasma Concentration (rats, Female, Day 1, 8 h, 2 mg/kg): 70.0 ng/mL and 69.2 ng/mL and 151 ng/mL; Compound 1 Plasma Concentration (rats, Female, Day 1, 12 h, 2 mg/kg): 100 ng/mL and 54.7 ng/mL; Compound 1 Plasma Concentration (rats, Female, Day 1, 24 h, 2 mg/kg): BLQ (Below the lower limit of quantitation (<10.0 ng/mL)) and 28.8 ng/mL and 10.2 ng/mL; Compound 1 Plasma Concentration (rats, Female, Day 1, […]): BLQ (Below the lower limit of quantitation (<10.0 ng/mL)); Compound 1 Plasma Concentration (rats, Female, Day 14, 0.5 h, 2 mg/kg): 108 ng/mL; Compound 1 Plasma Concentration (rats, Female, Day 14, 1 h, 2 mg/kg): 113 ng/mL; Compound 1 Plasma Concentration (rats, Female, Day 14, 2 h, 2 mg/kg): 200 ng/mL; Compound 1 Plasma Concentration (rats, Female, Day 14, 4 h, 2 mg/kg): 119 ng/mL; Compound 1 Plasma Concentration (rats, Female, Day 14, 8 h, 2 mg/kg): 54.0 ng/mL; Compound 1 Plasma Concentration (rats, Female, Day 14, 12 h, 2 mg/kg): 65.4 ng/mL and 32.0 ng/mL; Compound 1 Plasma Concentration (rats, Female, Day 14, 24 h, 2 mg/kg): BLQ (Below the lower limit of quantitation (<10.0 ng/mL)); Compound 1 Plasma Concentration (rats, Female, Day 14, Predose): BLQ (Below the lower limit of quantitation (<10.0 ng/mL)); Compound 1 Plasma Concentration (rats, Female, Day 14, […], 2 mg/kg): BLQ (Below the lower limit of quantitation (<10.0 ng/mL)); Compound 1 Plasma Concentration (rats, Male, Day 1, 0.5 h, 2 mg/kg): 64.1 ng/mL and 74.1 ng/mL and 35.0 ng/mL; Compound 1 Plasma Concentration (rats, Male, Day 1, 1 h, 2 mg/kg): 47.1 ng/mL and 65.2 ng/mL; Compound 1 Plasma Concentration (rats, Male, Day 1, 2 h, 2 mg/kg): 113 ng/mL and 95.5 ng/mL; Compound 1 Plasma Concentration (rats, Male, Day 1, 4 h, 2 mg/kg): 107 ng/mL and 148 ng/mL; Compound 1 Plasma Concentration (rats, Male, Day 1, 8 h, 2 mg/kg): 108 ng/mL and 64.1 ng/mL; Compound 1 Plasma Concentration (rats, Male, Day 1, 12 h, 2 mg/kg): 61.3 ng/mL and 47.8 ng/mL; Compound 1 Plasma Concentration (rats, Male, Day 1, 24 h): BLQ (Below the lower limit of quantitation (<10.0 ng/mL)); Compound 1 Plasma Concentration (rats, Male, Day 1, […]): BLQ (Below the lower limit of quantitation (<10.0 ng/mL)); Compound 1 Plasma Concentration (rats, Male, Day 14, 0.5 h, 2 mg/kg): 49.0 ng/mL and 55.7 ng/mL; Compound 1 Plasma Concentration (rats, Male, Day 14, 1 h, 2 mg/kg): 34.9 ng/mL and 61.2 ng/mL; Compound 1 Plasma Concentration (rats, Male, Day 14, 2 h, 2 mg/kg): 109 ng/mL and 91.3 ng/mL; Compound 1 Plasma Concentration (rats, Male, Day 14, 4 h, 2 mg/kg): 119 ng/mL and 112 ng/mL; Compound 1 Plasma Concentration (rats, Male, Day 14, 8 h, 2 mg/kg): 112 ng/mL and 102 ng/mL; Compound 1 Plasma Concentration (rats, Male, Day 14, 12 h, 2 mg/kg): 50.8 ng/mL and 45.6 ng/mL; Compound 1 Plasma Concentration (rats, Male, Day 14, 24 h): BLQ (Below the lower limit of quantitation (<10.0 ng/mL)); Compound 1 Plasma Concentration (rats, Male, Day 14, Predose): BLQ (Below the lower limit of quantitation (<10.0 ng/mL)); Compound 1 Plasma Concentration (rats, Male, Day 14, […]): BLQ (Below the lower limit of quantitation (<10.0 ng/mL)); Mean Compound 1 Plasma Concentration (rats, oral 2 mg/kg, Day 1, 24 h, Male, BLQ = <10.0 ng/mL): BLQ; Mean Compound 1 Plasma Concentration (rats, oral 2 mg/kg, Day 1, […], Female, BLQ = <10.0 ng/mL): BLQ; Mean Compound 1 Plasma Concentration (rats, oral 2 mg/kg, Day 1, […], Male, BLQ = <10.0 ng/mL): BLQ; Mean Compound 1 Plasma Concentration (rats, oral 2 mg/kg, Day 1, […], Overall, BLQ = <10.0 ng/mL): BLQ; Mean Compound 1 Plasma Concentration (rats, oral 2 mg/kg, Day 14, 24 h, Male, BLQ = <10.0 ng/mL): BLQ; Mean Compound 1 Plasma Concentration (rats, oral 2 mg/kg, Day 14, Pre-dose, Female, BLQ = <10.0 ng/mL): BLQ; Mean Compound 1 Plasma Concentration (rats, oral 2 mg/kg, Day 14, Pre-dose, Male, BLQ = <10.0 ng/mL): BLQ; Mean Compound 1 Plasma Concentration (rats, oral 2 mg/kg, Day 14, Pre-dose, Overall, BLQ = <10.0 ng/mL): BLQ; Mean Compound 1 Plasma Concentration (rats, oral 2 mg/kg, Day 14, […], Male, BLQ = <10.0 ng/mL): BLQ; Mean Compound 1 Plasma Concentration (rats, oral 5 mg/kg, Day 14, Pre-dose, Male): 20.0 ng/mL; Mean Compound 1 Plasma Concentration (rats, oral 5 mg/kg, Day 14, Pre-dose, Overall): 18.6 ng/mL; Mean Compound 1 Plasma Concentration (rats, oral 15 mg/kg, Day 14, Pre-dose, Female): 120 ng/mL; Mean Compound 1 Plasma Concentration (rats, oral 15 mg/kg, Day 14, Pre-dose, Male): 78.0 ng/mL; Mean Compound 1 Plasma Concentration (rats, oral 15 mg/kg, Day 14, Pre-dose, Overall): 99.2 ng/mL; Mean Compound 1 Plasma Concentration (rats, oral 30 mg/kg, Day 14, Pre-dose, Female): 336 ng/mL; Mean Compound 1 Plasma Concentration (rats, oral 30 mg/kg, Day 14, Pre-dose, Overall): 254 ng/mL; systemic exposure with increasing dose level (rats, oral, Days 1 and 14): increased roughly proportionally
